The assay has as its system PDGFRβ/PI3Kδ/Akt. Put plainly: Western blot of vitreous-induced Akt activation restored by mutant PDGFRβ (βΔx) in PDGFRβ-silent RPEM cells. The assay is classed as cell-based, human. Conditions: PDGFRβ-silent RPEM cells expressing βΔx; NAC 10 mM, SU6656 1 μM. The procedure:
2B. Serum-deprived RPEM cells as defined were treated with RV or PDGF-B for 30 minutes and their lysates were analyzed with indicated antibodies. This is a representative of three independent experiments. βΔx: a truncated PDGFRβ without the PDGF-binding domain. NAC: N-acetyl-cysteine (10 mM), a scavenger of reactive oxygen species (ROS), SU: SU6656 (1 μM), a specific inhibitor of Src family kinases (SFKs).
To make the retrovirus, the pLXSHD-PDGFRβΔx construct was transfected into 293GPG cells with reagent (Lipofectamine 2000; Invitrogen). Virus containing medium was collected for 5 days and then was concentrated (25,000g, 90 minutes, 4° C.). RPEM cells deficient for PDGFRβ were infected by incubation with the concentrated retrovirus in DMEM supplemented with 10% FBS and 8 μg/mL polybrene (hexadimethrine bromide; Sigma) for 24 hours. Successfully infected cells were selected in histidine-free DMEM supplemented with 2 mM L-histidinol dihydrochoride (Sigma, St. Louis, Mo.). Resultant cell lines were termed RPEMPAx; the level of the truncated PDGFRPAx was determined by Western blot analysis with an antiPDGFRβ antibody that recognizes the receptor's intracellular domain.
Cells grown to 90% confluence in wells of 24-well plates were serum starved for 24 hours, and then treated with appropriated agents. […] Signal intensity was determined by densitometry using NIH imageJ software^24, 44, 50.

The structures appear in SMILES notation.

In the case of `CN(C)S(=O)(=O)c1ccc2c(c1)/C(=C/c1cc3c([nH]1)CCCC3)C(=O)N2` [SU6656], the “effect on restoration of vitreous-induced activation of Akt by mutant PDGFRβ” value was “prevented”.

Consider `CC(=O)N[C@@H](CS)C(=O)O` [N-acetyl-cysteine], for which the “effect on restoration of vitreous-induced activation of Akt by mutant PDGFRβ” value is given as “prevented”.
